Data set [1] deals with foot mucosa of slugs of the species Arion. Put plainly: Slug mucosal toxicity test of local anaesthetics, Example 4. It is filed as in vivo. Here is the method:
The following local anaesthetics were used as test substance: procaine HCl, lidocaine HCl, prilocaine HCl, tetracaine HCl and bupivacaine HCl. All test substances were prepared in PBS (pH 7.4) at 1% w/v concentrations. The slugs were daily incubate during 15 min with the test solution during five days. After the incubation period the slugs were placed on 1 ml PBS in a petri dish. The PBS was sampled every hour and refreshed with 1 ml PBS for 3 hours after the treatment.
The total protein released into the PBS was determined.

The test system of data set [2] is foot mucosa of slugs (species Arion). Put plainly: Slug mucosal toxicity test, Example 1 (15 min daily treatment, five days). The conditions noted are these: for % WL, reduction in weight (weight loss) caused by the 15 minute treatment as % of initial body weight of the day / % MP, mucus production as % of the body weight at the start of the day before the treatment: 1% w/v in PBS; for % MP, mucus production as % of the body weight at the start of the day before the treatment / ALP released into PBS / LDH released into PBS / Protein released into PBS: 15 min; for ALP released into PBS / LDH released into PBS / Protein released into PBS: total mean of 7 samples/day per slug. It is filed as in vivo. The source says: Initially, the slugs are kept on a culture under controlled conditions of temperature and humidity until they have reached a stable body weight. The purpose of achieving a stable body weight is to improve the reproducibility of the results, particularly as the release of substances from the slugs may conveniently be measured in terms of the body weight thereof. The slugs are then isolated from the culture and placed in a vented plastic box lined with moist paper towel and placed at 95% relative humidity at 20° C. seven days before the start of an experiment. The slugs were not bred in any particular way, i.e. they were wild slugs. It is anticipated that even more accurate and reproducible results can be obtained by selective breeding of the slugs, although as shown by the test results this is not a necessary requirement of the present invention to obtain accurate and useful data.
The test procedure is simple and rapid. The chemical substance to be tested is applied directly to the mucosal membrane of a slug, e.g. to the foot, by placing the slug individually in a petri dish containing the test substance. Slugs treated with phosphate buffered saline are used as a negative control. As a positive control slugs treated with a known toxic substance, benzalkonium chloride, were used.
Because the mucosal epithelium of interest is located at the outside of the slug the effect of substances can be easily observed. […] This can also be simply measured by weighing the petri dish before and after the treatment of the slugs with the chemical substance (with the slugs removed in each case). Additionally an indirect response to epithelial damage caused by a chemical substance may be determined by the reduction of the body weight of the slugs due to the leakage of haemolymphatic fluids through the damaged foot surface.
After the treatment the slugs are transferred individually to a fresh petri dish containing phosphate buffered saline. After a suitable exposure time, e.g. 1 hour the phosphate buffered saline is collected and analysed for the presence of proteins and/or enzymes, e.g. lactate dehydrogenase and/or alkaline phosphatase, or other marker substances released from the foot or epithelium of the slug, for example membrane associated components such as phospholipids or cholesterol. This procedure can be repeated after periods of several hours in order to determine the reversibility of the cell damage caused by the test chemical substance. The concentration or amount of the chemical substance to be tested can be changed and the influence of the concentration can be easily examined. The exposure time can also be changed if required. The slugs can be treated during several successive days in order to investigate the subchronical effect of substances on the foot mucosa.
Seven days before the start of the experiment the slugs were isolated in a plastic box lined with moist paper towel and placed at 95% relative humidity at 20° C. As test substances didecanyol-L-α-phosphatidylcholine (DDPC) and sodium deoxycholate (SDC) were selected. Benzalkonium chloride (1% w/v), SDC (1% w/v) and DDPC (1%, w/v) were prepared in phosphate buffered saline (PBS, pH 7.4). […] During the test the slugs are preferably kept in a generally calm and normal state and are not subjected to mechanical vibrations or mechanical or electrical disturbances which may affect mucus production.
The enzymes (lactate dehydrogenase (LDH) and alkaline phosphatase (ALP)) and total protein released into the PBS were determined. The slugs were weighed before and after the incubation period to determine the body weight changes. The mucus production was measured by weighing the petri dishes before and after the treatment with a test substance. The results are shown in Table 1 and shown graphically in FIGS. 1 to 5.

[3] abbreviates: 1% w/v, 15 min daily, five days.

Structures can show the parent of a compound that is named as a salt.

On to `CCCCN1CCCCC1C(=O)Nc1c(C)cccc1C` (centres unmarked) [Bupivacaine HCl, bupivacaine HCl], for which the “% MP, mucus production as % of the body weight at the start of the day before the treatment” value (“% MP, mucus production as %” for short) in data set [1] (Arion (slug), in vivo, 1 day) was 7.24%; in data set [1] (Arion (slug), in vivo, 2 day), 5.22%; in data set [1] (Arion (slug), in vivo, 3 day) it was 2.74%; in data set [1] (Arion (slug), in vivo, 4 day), 1.64%; in data set [1] (Arion (slug), in vivo, 5 day), 1.34%. The “Total protein release into PBS” value in data set [1] (Arion (slug), in vivo, 1 day) came to 755 µg/mL; in data set [1] (Arion (slug), in vivo, 2 day), 464 µg/mL; in data set [1] (Arion (slug), in vivo, 3 day) it was 277 µg/mL; in data set [1] (Arion (slug), in vivo, 4 day), 159 µg/mL; in data set [1] (Arion (slug), in vivo, 5 day) it was 313 µg/mL. Further, in data set [1] (in vivo), the “mucus production (in words)” value is reported as “increased mucus production”. Also, in data set [1] (in vivo), the “protein release (in words)” value is “increased protein release”.

Take `CCCCCCCCCC(=O)OC[C@H](COP(=O)([O-])OCC[N+](C)(C)C)OC(=O)CCCCCCCCC` [DDPC, didecanyol-L-α-phosphatidylcholine]: the “membrane damage (in words)” value in data set [2] (setting [3]) is reported as “little or no damage”. For the same compound, the “% WL, reduction in weight (weight loss) caused by the 15 minute treatment as % of initial body weight of the day” value is on record as 4.84% in data set [2] (day 1); 1.19% in data set [2] (day 2); 1.15% in data set [2] (day 3); 1.39% in data set [2] (day 4); 1.14% in data set [2] (day 5). For the same compound, the “% MP, mucus production as %” value turned out to be 0.2% in data set [2] (day 1); 0% in data set [2] (day 2); 0% in data set [2] (day 3); 0% in data set [2] (day 4); 0% in data set [2] (day 5). Moreover, the “ALP released into PBS” value was found to be 9.43 U/L in data set [2] (day 1, 1% w/v); 21.83 U/L in data set [2] (day 2, 1% w/v); 13.82 U/L in data set [2] (day 3, 1% w/v); 4.55 U/L in data set [2] (day 4, 1% w/v); 12.42 U/L in data set [2] (day 5, 1% w/v). Moreover, the “LDH released into PBS” value came out at 9.51 U/L in data set [2] (day 1, 1% w/v); 14.47 U/L in data set [2] (day 2, 1% w/v); 23.36 U/L in data set [2] (day 3, 1% w/v); 19.07 U/L in data set [2] (day 4, 1% w/v); 28.32 U/L in data set [2] (day 5, 1% w/v). For the same compound, the “Protein released into PBS” value in data set [2] (day 1, 1% w/v) was 12.43 μg/30 μL; in data set [2] (day 2, 1% w/v), 3.77 μg/30 μL; in data set [2] (day 3, 1% w/v) it was 6.41 μg/30 μL; in data set [2] (day 4, 1% w/v), 4.98 μg/30 μL; in data set [2] (day 5, 1% w/v), 2.40 μg/30 μL.

Consider `CCN(CC)CC(=O)Nc1c(C)cccc1C` [Lidocaine HCl, lidocaine HCl], for which the “damage (in words)” value in data set [1] (setting [3]) is on record as “little or no damage”. Also, the “% MP, mucus production as %” value in data set [1] (day 1, 1% w/v in PBS, 15 min) amounted to 0%; in data set [1] (day 2, 1% w/v in PBS, 15 min), 0%; in data set [1] (day 3, 1% w/v in PBS, 15 min) it was 0%; in data set [1] (day 4, 1% w/v in PBS, 15 min), 0%; in data set [1] (day 5, 1% w/v in PBS, 15 min) it was 0%.

As to `CCCNC(C)C(=O)Nc1ccccc1C` (centres unmarked) [Prilocaine HCl, prilocaine HCl], the “% MP, mucus production as %” value in data set [1] (Arion (slug), in vivo, 1 day) was found to be 0%; in data set [1] (Arion (slug), in vivo, 2 day) it was 0%; in data set [1] (Arion (slug), in vivo, 3 day), 0%; in data set [1] (Arion (slug), in vivo, 4 day), 0%; in data set [1] (Arion (slug), in vivo, 5 day), 0%. The “Total protein release into PBS” value in data set [1] (Arion (slug), in vivo, 1 day) was determined as 139 µg/mL; in data set [1] (Arion (slug), in vivo, 2 day), 62 µg/mL; in data set [1] (Arion (slug), in vivo, 3 day), 72 µg/mL; in data set [1] (Arion (slug), in vivo, 4 day), 65 µg/mL; in data set [1] (Arion (slug), in vivo, 5 day) it was 82 µg/mL.

As to `CCN(CC)CCOC(=O)c1ccc(N)cc1` [Procaine HCl, procaine HCl], the “% MP, mucus production as %” value in data set [1] (Arion (slug), in vivo, 1 day) is 0%; in data set [1] (Arion (slug), in vivo, 2 day), 0%; in data set [1] (Arion (slug), in vivo, 3 day) it was 0%; in data set [1] (Arion (slug), in vivo, 4 day) it was 0%; in data set [1] (Arion (slug), in vivo, 5 day), 0%. Also, the “Total protein release into PBS” value in data set [1] (Arion (slug), in vivo, 1 day) was 204 µg/mL; in data set [1] (Arion (slug), in vivo, 2 day), 62 µg/mL; in data set [1] (Arion (slug), in vivo, 3 day), 92 µg/mL; in data set [1] (Arion (slug), in vivo, 4 day), 54 µg/mL; in data set [1] (Arion (slug), in vivo, 5 day), 70 µg/mL. Also, the “damage (in words)” value in data set [1] (in vivo) was “little or no damage”.

`CCCCNc1ccc(C(=O)OCCN(C)C)cc1` [Tetracaine HCl, tetracaine HCl]: the “% MP, mucus production as %” value in data set [1] (Arion (slug), in vivo, 1 day) came to 3.45%; in data set [1] (Arion (slug), in vivo, 2 day), 2.48%; in data set [1] (Arion (slug), in vivo, 3 day) it was 1.15%; in data set [1] (Arion (slug), in vivo, 4 day), 1.29%; in data set [1] (Arion (slug), in vivo, 5 day) it was 0.65%. Further, the “Total protein release into PBS” value in data set [1] (Arion (slug), in vivo, 1 day) amounted to 413 µg/mL; in data set [1] (Arion (slug), in vivo, 2 day), 130 µg/mL; in data set [1] (Arion (slug), in vivo, 3 day) it was 120 µg/mL; in data set [1] (Arion (slug), in vivo, 4 day) it was 128 µg/mL; in data set [1] (Arion (slug), in vivo, 5 day), 149 µg/mL. The “mucus production (in words)” value in data set [1] (in vivo) is listed as “increased mucus production”. Moreover, the “protein release (in words)” value in data set [1] (in vivo) is reported as “increased protein release”.

Source of the values: patent US6436630B1, “Method for testing the toxicity of chemical substances using gastropods” (priority 1998, dated 2002).
